Patent publication US10576148B2, “Use of VAP-1 inhibitors for treating fibrotic conditions” (BIOTIE THERAPIES CORP., priority 2009, dated 2020)

Assays:
ApoE3 Leiden mice = test: cuff-induced neointimal thickening in femoral artery; type: in vivo, mouse; conditions: for intima media ratio: vs control group; for lumen size (HPS stained vessel segments): vs control group A
Source text: Neointimal and medial thickening is an early and essential stage in the development of atherosclerotic lesions and an essential component of restenosis. It is accompanied by fibrotic changes in the neointima and media of the vascular wall. This study evaluated the role of blocking SSAO in fibrotic disease by evaluating the effect of systemic delivery (by daily ip injection) of a small molecule SSAO inhibitor (mofegiline, BTT-2089) on cuff-induced neointimal thickening (cuff-induced stenosis) in the femoral artery of ApoE3 Leiden mice that received a moderate western type diet.
Methods: 40 male ApoE3*Leiden mice (age 12 weeks) were fed a mildly hypercholesterolemic diet for 3 weeks prior to surgical cuff placement. Treatment was daily ip injections with 1) vehicle; 2) dexamethasone in drinking water at 9 mg/I; 3) daily ip injections of BTT-2089 at 10 mg/kg; 4) BTT-2089 at 30 mg/kg, all started one day prior to surgery and continued during the experimental period. At day 0 surgery was performed, i.e. a non-constricting cuff (2-3 mm in length) was placed around both femoral arteries of the mice. 10 mice of each group were sacrificed after 2 weeks for histomorphometric analysis to quantify the inhibition of accelerated atherosclerotic lesions and neointima formation. […] This was reflected in the increased lumen size in examples of HPS stained vessel segments in SSAO inhibitor treated groups when compared to a control group (FIG. 12).
A second study, in the same model, was performed with another SSAO inhibitor from a chemical class distinct from BTT-2089. This hydrazine based inhibitor (BTT-2079) was dosed at a level of 10 mg/kg by daily i.p injection and compared with BTT-2089 at 30 mg/kg. In all other respects the study was performed in the same manner except that the dexamethasone control group was omitted. […] Vascular integrity was not affected.

C57BL/6J mice = test: tobacco smoke induced mouse model of COPD, BAL cell counts; type: in vivo; conditions: for reduction of total number of cells in BAL: 5 mg/kg orally once daily 11 days, 1 h prior to TS
Method: C57BL/6J mice were exposed once daily to tobacco smoke (TS) for 11 consecutive days resulting in pulmonary inflammation 24 hours following the final TS exposure. After 11 days the response comprised of significant increases in macrophages, epithelial cells, eosinophils, neutrophils and lymphocytes.
Mice were randomly divided into study groups (n=10) and treated with a vehicle (5 ml/kg PBS pH 7.4+0.1% Polysorbate 80) or mouse monoclonal anti-VAP-1 antibody (3 mg/kg or 9 mg/kg BTT-1029 in the vehicle) intravenously on Days −1, 3, 6, and 9 at 4 h post TS exposure. Another group (n=10) received the vehicle intravenously and was exposed to air for an equivalent length of time. Two further groups of mice (n=10) received another vehicle (0.5% carboxymethylcellulose, sodium salt (CMC) in sterile water) or a reference compound (5 mg/kg Roflumilast in 0.5% CMC) orally once a day for 11 consecutive days at 1 h prior to each TS exposure. A final group (n=10) received the oral vehicle (0.5% CMC) and was exposed to air for an equivalent length of time.
All results were presented as individual data points for each animal and the mean value calculated for each group. Where tests for normality were positive the data initially was subjected to a one way analysis of variance test (ANOVA), followed by a Bonferroni correction for multiple comparisons in order to test for significance between treatment groups. A “p” value of ≤0.05 was considered to be statistically significant.
All data was also subjected to the Bartlets test for equal variances and for the majority of studies variances were generally equal, however as occurred in this study, occasionally some treatment groups would give a positive result. Non parametric analyses were therefore also used. As the data was normally distributed, parametric analyses (ANOVA) were quoted.
Percentage inhibitions were automatically calculated within the Excel spreadsheets for the cell data using the formula below: […]

[1] = second study, 10 mg/kg i.p. daily
[2] = first study, 10 mg/kg ip daily, 2 weeks, vs NaCl 0.9% control
[3] = first study, 30 mg/kg ip daily, 2 weeks, vs NaCl 0.9% control
[4] = second study, 30 mg/kg i.p. daily

CN(N)[C@H](c1ccccc1)[C@@H](O)c1ccccc1 [BTT-2079, (1S,2R)-2-(1-methylhydrazino)-1,2-diphenylethanol]
lumen area (ApoE3 Leiden mice; [1]): No significant changes
media area (ApoE3 Leiden mice; [1]): No significant changes
neointima formation (ApoE3 Leiden mice; [1]): significant reduction
percentage lumen stenosis (ApoE3 Leiden mice; [1]): only significantly less in the BTT-2089 30 mg/kg group
vascular integrity (ApoE3 Leiden mice; [1]): not affected
vessel wall diameter (ApoE3 Leiden mice; [1]): No significant changes
intima media ratio (ApoE3 Leiden mice; [1]): significantly less

NC/C(=C/F)CCc1ccc(F)cc1 [BTT-2089, (E)-2-(4-fluorophenethyl)-3-fluoroallylamine]
media formation (ApoE3 Leiden mice; [2]): significant reduction
neointima formation (ApoE3 Leiden mice; [2]): significant reduction
lumen size (HPS stained vessel segments) (ApoE3 Leiden mice; first study, 10 mg/kg): increased
media formation (ApoE3 Leiden mice; [3]): significant reduction
neointima formation (ApoE3 Leiden mice; [3]): significant reduction
lumen size (HPS stained vessel segments) (ApoE3 Leiden mice; first study, 30 mg/kg): increased
lumen area (ApoE3 Leiden mice; [4]): No significant changes
media area (ApoE3 Leiden mice; [4]): No significant changes
neointima formation (ApoE3 Leiden mice; [4]): significant reduction
percentage lumen stenosis (ApoE3 Leiden mice; [4]): significant reduction
vascular integrity (ApoE3 Leiden mice; [4]): not affected
vessel wall diameter (ApoE3 Leiden mice; [4]): No significant changes
intima media ratio (ApoE3 Leiden mice; [4]): significantly less

O=C(Nc1c(Cl)cncc1Cl)c1ccc(OC(F)F)c(OCC2CC2)c1 [Roflumilast]
number of eosinophils in BAL (C57BL/6J mice; 5 mg/kg orally once daily): did not significantly reduce
number of macrophages in BAL (C57BL/6J mice; 5 mg/kg orally once daily): did not significantly reduce
reduction of epithelial cells in BAL (C57BL/6J mice; 5 mg/kg orally once daily): 51%
reduction of lymphocytes in BAL (C57BL/6J mice; 5 mg/kg orally once daily): 65%
reduction of neutrophils in BAL (C57BL/6J mice; 5 mg/kg orally once daily): 63%
reduction of total number of cells in BAL (C57BL/6J mice): 41%
reduction of total number of cells in BAL (C57BL/6J mice; listed as roflumilast): reduction
